According to patent US7700101B2, “Reagents and method for modulating Dkk-mediated interactions” (Wyeth, priority 2001, dated 2010):
pKd: −log10 of the molar value. Like-named read-outs stand apart in the source and are kept apart here.

Experiments:
[1] = tested on: HBM-mediated Wnt signaling; assay: Xenopus embryo assay, hDkk-1 modulation of HBM+Wnt5a signaling; format: in vivo; conditions: hDkk-1 250 pg, FIG. 11
Procedure: mRNA for microinjection into Xenopus embryos is generated by in vitro transcription using the CDNA constructs in the pCS2^+ vector described above as template. RNA is synthesized using the Ambion mMessage mMachine high yield capped RNA transcription kit (Cat. #1340) following the manufacturer's specifications for the Sp6 polymerase reactions. RNA products were brought up to a final volume of 50 μl in sterile, glass-distilled water and purified over Quick Spin-Columns for Radiolabelled RNA Purification G50-Sephadex (Roche, Cat. #1274015) following the manufacturer's specifications. The resulting eluate was finally extracted with phenol:chloroform:isoamyl alcohol and isopropanol precipitated using standard protocols (Sambrook et al., 1989). Final RNA volumes were approximately 50 μl. RNA concentration was determined by absorbance values at 260 nm and 280 nm. RNA integrity was visualized by ethidium bromide staining of denaturing (formaldehyde) agarose gel electrophoresis (Sambrook et al., 1989). Various amounts of RNA (2 pg to 1 ng) are injected into the ventral blastomere of the 4- or 8-cell Xenopus embryo. These protocols are described in Moon et al., Technique-J. of Methods in Cell and Mol. Biol. 1: 76-89 (1989), and Peng, Meth. Cell. Biol. 36: 657-62 (1991). […]

LRP5 LBD = assay: Yeast-2 hybrid interaction trap LRP5 LBD-LexA / Gal4AD-Dkk; format: binding; conditions: LRP5LBD-LexA bait and Gal4AD-Dkk prey
Text: Small molecule inhibitors (or partial inhibitors) of the Dkk-LRP interaction may be an excellent osteogenic therapeutic. One way to investigate this important protein-protein interaction is using Y2H techniques substantially as described above and as is well known in the art. […] This interaction is quantitated using a reporter element known in the art, e.g., LacZ or luciferase, which is only activated when bait and prey interact. The Y2H assay is used to screen for compounds which modulate the LRP-Dkk interaction. Such a modulation would be visualized by a reduction in reporter element activation signifying a weaker or disrupted interaction, or by an enhancement of the reporter element activation signifying a stronger interaction. Thus, the Y2H assay can be used as a high-throughput screening technique to identify compounds which disrupt or enhance Dkk interaction with LRP5/LRP6/HBM, which may serve as potential therapeutics.
For example, the Interaction Trap methodology can be used as follows. […] With the LRP5LBD-LexA bait and the Gal4AD-Dkk prey, over a 20-fold activation of a lacZ reporter (under the control of a single LexA operator) was detected over the background. […] As a result, small molecules may be identified that modulate this interaction between LRP and Dkk.

endogenous LRP5/6 = assay: Cell-based TCF reporter high-throughput assay, endogenous LRP5/6; set-up: species or system human; conditions: U2OS cells, no Wnt3a/Wnt1 transfection, FIG. 21
Text: To develop a high throughput assay, the TCF-luciferase assay described in Example 7 was modified utilizing low level expression of endogenous LRP5/6 in U2OS and HEK293 cells. […] Using U2OS (human osteosarcoma) and HEK293 (ATCC) cells, the TCF-luciferase and tk-Renilla reporter element constructs were co-transfected along with Wnt3a/1 and Dkk.

LRP5 = molecular target: T1, LRP5 (Homo sapiens, UniProt O75197); assay: Cell-based TCF reporter high-throughput assay, LRP5 cDNA; conditions: U2OS cells, Wnt1 or Wnt3a/Wnt1 co-transfected, FIG. 20
T1 construct: Site-directed mutants of LRP5 were generated in the full-length human LRP5 cDNA; expressed in transfected cells; host or cells: HOB-03-CE6 osteoblastic cells; U2OS osteosarcoma cells; HEK293
Text: To develop a high throughput assay, the TCF-luciferase assay described in Example 7 was modified utilizing low level expression of endogenous LRP5/6 in U2OS and HEK293 cells. However, HOB-03-CE6 cells and any other cells which show a differential response to Dkk depending on whether LRP5, LRP6 or HBM are expressed. Using U2OS (human osteosarcoma) and HEK293 (ATCC) cells, the TCF-luciferase and tk-Renilla reporter element constructs were co-transfected along with Wnt3a/1 and Dkk. Wnt3a alone, by using endogenous LRP5/6, was able to stimulate TCF reporter gene activation. When Dkk, is co-transfected with Wnt3a/Wnt 1 and reporters (TCF-luci and tk-Renilla), DEkk represses reporter element activity. In addition, the TCF-luci signal is activated by Wnt3a/Wnt1 can be repressed by the addition of Dkk-enriched conditioned media to the cells containing Wnt3a/Wnt1 and reporters.
The Dkk-mediated repression of the reporter is dependent upon the concentration of transfected Dkk cDNA or on the amount of Dkk-conditioned media added. In addition, the Dkk-mediated reporter suppression can be altered by the co-transfection of LRP5, LRP6, and HBM cDNAs in the U2OS or HEK293 cells. In general, U2OS cells show greater sensitivity to Dkk-mediated reporter suppression than that in HEK-293 cells. […]

LRP6 = LRP6 (Homo sapiens, UniProt O75581); conditions: cited from earlier work
canonical Wnt signaling = conditions: Bafico et al.; Dkk-1 added at 30 pM; cited from earlier work

LRP6, sequence (O75581 20-1613, species assumed): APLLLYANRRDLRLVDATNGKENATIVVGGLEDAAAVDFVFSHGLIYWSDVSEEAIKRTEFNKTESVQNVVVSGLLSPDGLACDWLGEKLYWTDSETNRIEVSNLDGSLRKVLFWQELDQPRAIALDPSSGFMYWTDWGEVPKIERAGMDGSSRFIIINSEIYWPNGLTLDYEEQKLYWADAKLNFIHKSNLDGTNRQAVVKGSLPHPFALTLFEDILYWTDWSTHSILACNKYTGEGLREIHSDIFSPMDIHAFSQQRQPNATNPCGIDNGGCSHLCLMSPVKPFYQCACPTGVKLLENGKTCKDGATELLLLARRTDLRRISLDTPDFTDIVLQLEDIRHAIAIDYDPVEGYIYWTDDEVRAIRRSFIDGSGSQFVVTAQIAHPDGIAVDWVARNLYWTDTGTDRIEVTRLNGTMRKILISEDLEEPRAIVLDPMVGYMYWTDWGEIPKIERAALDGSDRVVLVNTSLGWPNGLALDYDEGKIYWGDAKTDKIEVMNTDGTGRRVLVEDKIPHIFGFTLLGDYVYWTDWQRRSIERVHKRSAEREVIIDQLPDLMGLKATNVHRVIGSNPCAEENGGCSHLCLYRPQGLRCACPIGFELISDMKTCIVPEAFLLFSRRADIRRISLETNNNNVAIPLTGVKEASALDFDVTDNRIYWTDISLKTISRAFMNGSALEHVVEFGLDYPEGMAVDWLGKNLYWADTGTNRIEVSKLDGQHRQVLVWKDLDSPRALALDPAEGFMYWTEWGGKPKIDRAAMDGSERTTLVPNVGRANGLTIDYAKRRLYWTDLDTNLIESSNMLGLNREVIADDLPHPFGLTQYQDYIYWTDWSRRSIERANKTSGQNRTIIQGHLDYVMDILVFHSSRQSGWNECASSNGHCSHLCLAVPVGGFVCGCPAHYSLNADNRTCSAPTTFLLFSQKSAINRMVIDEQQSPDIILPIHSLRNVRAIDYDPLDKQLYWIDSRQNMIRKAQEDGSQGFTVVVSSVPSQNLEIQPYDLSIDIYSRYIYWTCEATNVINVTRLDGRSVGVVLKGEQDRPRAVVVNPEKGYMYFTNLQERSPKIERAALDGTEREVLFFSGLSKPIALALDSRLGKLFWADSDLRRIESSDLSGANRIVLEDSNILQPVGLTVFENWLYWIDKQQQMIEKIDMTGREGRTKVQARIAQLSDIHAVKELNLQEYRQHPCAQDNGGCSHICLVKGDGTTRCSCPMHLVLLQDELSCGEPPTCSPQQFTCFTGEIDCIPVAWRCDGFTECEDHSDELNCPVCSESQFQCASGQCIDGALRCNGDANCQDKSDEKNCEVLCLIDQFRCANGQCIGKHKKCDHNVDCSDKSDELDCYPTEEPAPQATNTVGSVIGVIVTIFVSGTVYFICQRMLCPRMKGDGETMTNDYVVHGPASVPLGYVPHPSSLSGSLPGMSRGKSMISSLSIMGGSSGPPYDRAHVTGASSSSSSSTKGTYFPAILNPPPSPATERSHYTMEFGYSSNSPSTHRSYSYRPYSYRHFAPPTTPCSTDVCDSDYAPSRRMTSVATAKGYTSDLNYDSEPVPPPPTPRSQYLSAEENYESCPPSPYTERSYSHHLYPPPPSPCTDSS
T1 sequence (O75197 32-1615): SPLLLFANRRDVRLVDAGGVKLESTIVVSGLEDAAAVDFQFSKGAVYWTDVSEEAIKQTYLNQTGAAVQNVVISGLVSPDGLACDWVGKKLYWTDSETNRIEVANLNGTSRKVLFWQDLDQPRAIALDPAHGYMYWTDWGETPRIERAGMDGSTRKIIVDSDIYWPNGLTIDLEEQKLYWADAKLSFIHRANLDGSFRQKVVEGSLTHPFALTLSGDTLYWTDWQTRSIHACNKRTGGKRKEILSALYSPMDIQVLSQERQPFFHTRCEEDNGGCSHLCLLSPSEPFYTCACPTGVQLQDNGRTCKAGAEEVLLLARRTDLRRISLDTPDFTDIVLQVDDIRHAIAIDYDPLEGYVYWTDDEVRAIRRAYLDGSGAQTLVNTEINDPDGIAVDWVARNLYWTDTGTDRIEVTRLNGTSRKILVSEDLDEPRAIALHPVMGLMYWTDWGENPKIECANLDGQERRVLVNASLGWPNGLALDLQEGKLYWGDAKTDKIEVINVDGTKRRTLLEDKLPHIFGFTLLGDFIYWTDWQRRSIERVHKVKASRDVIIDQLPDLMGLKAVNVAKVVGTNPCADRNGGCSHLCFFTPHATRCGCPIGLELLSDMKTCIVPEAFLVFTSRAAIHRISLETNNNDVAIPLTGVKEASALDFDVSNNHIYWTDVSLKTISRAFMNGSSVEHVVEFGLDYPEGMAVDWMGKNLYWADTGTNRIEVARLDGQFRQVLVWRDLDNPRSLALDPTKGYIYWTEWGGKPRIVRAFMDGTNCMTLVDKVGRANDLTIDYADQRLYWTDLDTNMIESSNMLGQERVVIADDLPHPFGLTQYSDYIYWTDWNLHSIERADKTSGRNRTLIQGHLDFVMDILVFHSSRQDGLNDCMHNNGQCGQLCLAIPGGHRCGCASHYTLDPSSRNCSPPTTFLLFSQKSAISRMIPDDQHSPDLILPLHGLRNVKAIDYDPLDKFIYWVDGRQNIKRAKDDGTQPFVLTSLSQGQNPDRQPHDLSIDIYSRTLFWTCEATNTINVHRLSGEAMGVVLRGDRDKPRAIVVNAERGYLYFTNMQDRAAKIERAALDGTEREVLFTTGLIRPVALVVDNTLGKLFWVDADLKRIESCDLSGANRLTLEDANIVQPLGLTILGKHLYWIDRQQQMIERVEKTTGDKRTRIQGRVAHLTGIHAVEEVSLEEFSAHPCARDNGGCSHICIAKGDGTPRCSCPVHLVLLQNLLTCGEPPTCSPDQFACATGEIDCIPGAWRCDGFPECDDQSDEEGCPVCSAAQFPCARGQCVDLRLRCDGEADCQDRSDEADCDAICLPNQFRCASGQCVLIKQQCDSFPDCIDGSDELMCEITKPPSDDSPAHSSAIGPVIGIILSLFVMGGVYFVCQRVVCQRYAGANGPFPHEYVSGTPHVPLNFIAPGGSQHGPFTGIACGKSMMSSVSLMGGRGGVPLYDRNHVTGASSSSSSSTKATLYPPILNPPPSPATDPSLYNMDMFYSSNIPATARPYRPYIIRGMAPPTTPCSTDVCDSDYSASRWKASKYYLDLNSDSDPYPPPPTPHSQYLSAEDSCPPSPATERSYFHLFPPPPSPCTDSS
LRP5 LBD, sequence (as listed by the source): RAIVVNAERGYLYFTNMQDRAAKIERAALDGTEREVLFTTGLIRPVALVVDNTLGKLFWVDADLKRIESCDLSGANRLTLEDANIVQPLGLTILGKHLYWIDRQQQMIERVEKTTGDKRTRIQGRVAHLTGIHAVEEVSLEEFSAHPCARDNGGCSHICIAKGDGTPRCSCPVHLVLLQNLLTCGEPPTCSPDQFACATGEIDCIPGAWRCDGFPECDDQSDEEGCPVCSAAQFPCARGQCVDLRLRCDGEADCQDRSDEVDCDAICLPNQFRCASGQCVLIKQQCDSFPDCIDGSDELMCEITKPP

## Dkk-1: Dickkopf-1 protein, antagonist of the Wnt pathway; expressed from human cDNA (RNA or plasmid)
[1]
  repression of HBM-mediated Wnt signaling: unable to repress
LRP5 LBD
  activation of lacZ reporter over the background: > 20 fold
Endogenous LRP5/6
  modulation of TCF signal without Wnt DNA transfection: can be modulated
Endogenous LRP5/6; listed as Dkk1
  modulation of TCF signal without Wnt DNA transfection: can repress TCF-luci
LRP5
  Dkk-mediated repression of LRP5 signaling (TCF reporter): represses
LRP5; listed as Dkk1
  Dkk-mediated repression of LRP5 signaling (TCF reporter): moderate
LRP6; Bafico et al., 125I-labeled Dkk-1
  pKd: 9.41
LRP6; Mao et al., classical biochemical ligand-receptor studies
  pKd: 9.47
Canonical Wnt signaling
  functional consequence of Dkk-1/LRP6 interaction on canonical Wnt signaling: repression of the canonical Wnt signaling
